# Patent US20080103191A1, “ENTACAPONE-DERIVATIVES” (priority 2006, published 2008)
# Like-named read-outs stand apart in the source and are kept apart here.
# Legend:
# [1] = Chemical hydrolysis stability at pH 1 and pH 7.4 (HPLC); assay type: physicochemical; conditions: 37° C., over 12 h
# Method: The stability of compounds of the present invention is tested at pH 1 and at pH 7.4. The testing is carried out by the following HPLC method:
# Chemical hydrolysis rates t1/2 [h] of selected compounds of formula I are determined in 0.1 N HCl (pH 1) and PBS buffer (pH 7.4) solution. Solutions are prepared by dissolving an appropriate amount of compound in 0.1 N HCl and PBS buffer solution. Samples were withdrawn at designated time intervals and analysed for remaining prodrug by HPLC at 37° C. over 12 h.
# Reversed phase gradient HPLC method, column YMC Pro C8, 50 mm×4.0 mm, 3 μm, Eluent A: Water:trifluoroacetic acid (100:0.5 (v/v)), Eluent B: Acetonitrile:trifluoroacetic:acid (100:0.5 (v/v)). Column temperature 30° C., Flow rate 3.0 mL/min, Detection wavelength: 220 nm
# For evaluation, the peak area of the respective compound from the first injection is defined as 100% relative concentration. The peak areas of all other subsequent injections are calculated in percentage relating to this standard. (relative concentration in %). The relative concentrations are plotted in a logarithmic scale (ln) against the injection times. Based on the assumption of a first order kinetic, the rate constant and half life times (t1/2 [h]) can be calculated.
# [2] = Solubility in 0.1 N HCl, PBS buffer, FaSSIF and FeSSIF; assay type: physicochemical; conditions: thermodynamic from solid
# Method: For testing solubility, saturated solutions of selected compounds of formula I are prepared in four different systems and compared to the solubility of entacapone. The solubility is tested in 0.1 N HCl (pH 1), PBS buffer (pH 7.4) and in two simulated gastric fluids, FaSSIF at pH 6.5 (for fasting state) and FeSSIF at pH 5.0 (for fed state) at ambient temperature. The content of the FaSSIF simulated gastric fluid is as follows:
# The solubility testing is carried out by the following method: An excess amount of each compound is added to a 0.1 N HCl, PBS buffer, FeSSIF and FaSSIF. The suspensions are shaken for 10 min. After centrifugation the concentration is determined by HPLC. Reversed phase gradient HPLC method, column YMC Pro C8, 50 mm×4.0 mm, 3 μm, Eluent A: Water:trifluoroacetic acid (100:0.5 (v/v)), Eluent B: Acetonitrile:trifluoroacetic:acid (100:0.5 (v/v)). Column temperature 30° C., Flow rate 3.0 mL/min, Detection wavelength: 220 nm
# [3] = Log D (pH 7.4) by isocratic HPLC; assay type: physicochemical; conditions: YMC Pro C18 column, phosphate buffer pH 7.4/acetonitrile 45/55
# Method: LogD is an indicator for absorption and lipophilicity for ionized compounds under defined pH conditions and is measured by applying an isocratic HPLC Method at pH 7.4.
# The log D has been tested at pH 7.4. The testing has been carried out by the following method: Isocratic HPLC method: Column YMC Pro C18, 150 mm×4.0 mm, 3 μm, Eluent Phosphate buffer pH 7.4/acetonitrile (45/55, (v/v)), Runtime 15-60 min, Flow rate 1.2 ml/min, Detection wavelength: 220 nm
# [4] = Permeability in Caco-2 cells, apical to basolateral; assay type: in vitro ADME; design: dose or concentration left out as unconfirmed; conditions: human; 21d Caco-2 monolayer, apical pH 6.5 to basolateral pH 7.4, 60 minutes
# From the text: The human adenocarcinoma cell line Caco-2 is used as an in vitro system to predict oral absorption. These cells serve as a model of small bowel tissue and permeation through these cells is a predictor for gastro-intestinal absorption. Further to being a model for oral absorption, permeability in Caco-2 cells may be predictive for the blood brain barrier permeability (P. Garberg et al.; Toxicology in vitro 19 (2005); 299-334). […] The permeability in Caco-2 cells has been tested by the following method:
# The permeability of selected compounds of formula I across Caco-2 (21d Caco-2-culture) monolayer in the apical to basolateral direction is investigated. Control substances were ^3H-propranolol and ^3H-mannitol.
# The nominal concentration of the test items is […]. The pH value is set to 6.5 for the apical transport medium and to 7.4 for the basolateral medium. Samples are obtained following 60 minutes (120 minutes for control samples) incubation from the basolateral receiver chamber. At sampling time approximately 600 μL of each well are transferred into an eppendorf vial and stored between −12° and −30° C. until HPLC or LC-MS/MS analysis. The control substances are quantified by liquid scintillation.
# [5] = Solubility in Labrasol and TPGS/PG formulations; assay type: physicochemical; conditions: Labrasol, oil or lipid; read-out: Solubility Labrasol ®
# Method: Selected lipophilic carbonate compounds of formula I with promising Caco-2 permeabilities are formulated with different lipids/lipophilic excipients and/or micelles forming compounds in order to increase their solubilities. The following formulations are prepared by mixing the ingredients mentioned below: • i) Formulations comprising solubilizers in the form of lipides/lipophilic excipients: • ia) Formulation comprising Labrasol® and the selected compounds of Formula I • Labrasol®: • Caprylocaproyl macrogol-8-glyceride (CAS No. 85536-07-8 and 84963-88-2). This is a mixture of mono-, di- and triesters of glycerol and of PEG 400 with medium-chain fatty acids (C8-C10) which is marketed, for example, by Gattefossé under the mark Labrasol®; Labrasol® has an HLB value (hydrophil-lipophil-balance, Griffin, W. C.: Classification of surface active agents by HLB, J. Soc. Cosmet. 1, 1949) of 14 and has the following composition by weight:
# • ib) Formulation comprising NanoSolve® 5401 (Lipoid GmbH, Germany) and the selected compounds of formula I • ic) Formulation comprising TPGS/PG in a weight ratio of 25% by weight of TPGS to 75% by weight of PG and the selected compounds of formula I. • PG: propylene glycol • TPGS: Vitamin E TPGS NF (d-α-tocopheryl polyethylene glycol 1000 succinate) which is marketed, for example, by Eastman Chemical Co • ii) Formulation comprising a micelles forming agent: • iia) Aqueous formulation comprising 30% by weight of Cremophor® RH 40 (relating to the weight of the aqueous phase) in water and the selected compounds of formula I • Cremophor® RH 40: • Generic names: • Polyoxyl 40 Hydrogenated Castor Oil (USP/NF). • Macrogol-Glycerolhydroxystearat (DAB). • Polyoxyethylenglyceroltrihydroxystearat (DAC). • Cremophor RH 40 is a non-ionic solubilizer and emulsifying agent obtained by reacting 45 moles of ethylene oxide with 1 mole of hydrogenated castor oil. The main constituent of Cremophor RH 40 is glycerol polyethylene glycol oxystearate, which, together with fatty acid glycerol polyglycol esters, forms the hydrophobic part of the product. The hydrophilic part consists of polyethylene glycols and glycerol ethoxylate. Cremophor RH 40 is a white to yellowish thin paste at 20° C. The HLB value lies between 14 and 16. Cremophor RH 40 is marketed by BASF AG.
# The solubility of selected compounds of formula I in these formulations is measured and compared to the solubility of the compounds in 0.1N HCl (pH 1.0), PBS buffer (pH 7.4), and two simulated gastric fluids (i.e., FaSSIF (pH 6.5) simulating fasting sate and FeSSIF (pH 5.0) simulating fed state) (see above for details).
# [6] = Storage stability at ambient temperature; assay type: physicochemical; conditions: glass bottles, more than two years, reanalysis by HPLC/MS and NMR
smiles,measurement,setting,value
"CCN(CC)C(=O)/C(C#N)=C/c1cc(O)c(O)c([N+](=O)[O-])c1 [entacapone, (E)-N,N-diethyl-2-cyano-3-(3,4-dihydroxy-5-nitrophenyl)acrylamide]",t1/2 at pH 1,[1]; 0.1 N HCl,stable
same,t1/2 at pH 7.4,[1]; PBS buffer,stable
same,solubility at 10 min,"[2]; 0.1 N HCl, pH 1, simulated gastric fluid, Table 11, maximum solubility, read-out: Solubility 0.1N HCl pH 1.0",50 µg/mL
same,solubility at 10 min,"[2]; 0.1 N HCl, pH 1, simulated gastric fluid, ambient temperature, shaken 10 min, read-out: Solubility 0.1N HCl Ph 1.0",50 µg/mL
same,solubility at 10 min,"[2]; FaSSIF, pH 6.5, fassif, Table 11, read-out: Solubility FaSSIF pH 6.5",150 µg/mL
same,solubility at 10 min,"[2]; FaSSIF, pH 6.5, fassif, fasting state fluid, ambient temperature, read-out: Solubility FaSSIF Ph 6.5",150 µg/mL
same,solubility at 10 min,"[2]; FeSSIF, pH 5, fessif, Table 11, read-out: Solubility FeSSIF pH 5.0",990 µg/mL
same,solubility at 10 min,"[2]; FeSSIF, pH 5, fessif, fed state fluid, ambient temperature, read-out: Solubility FeSSIF Ph 5.0",990 µg/mL
same,solubility at 10 min,"[2]; PBS buffer, pH 7.4, aqueous buffer, Table 11, read-out: Solubility PBS pH 7.4",1350 µg/mL
same,solubility at 10 min,"[2]; PBS buffer, pH 7.4, aqueous buffer, ambient temperature, read-out: Solubility PBS Ph 7.4",1350 µg/mL
same,chromatographic logD,[3],0.5
same,Papp A→B at 60 min,[4],17 ×10⁻⁶ cm/s
same,solubility,[5],23 mg/mL
same,degradation on storage,[6],without degradation
